# Experimental data published in patent US12084444B2, “Spiro-lactam NMDA modulators and methods of using same” (Tenacia Biotechnology (Hong Kong) Co., Limited, priority 2016, dated 2024).
# Tests used:
# [1] = biological target: T1, NMDAR2C expressing HEK cell membranes (Homo sapiens, UniProt Q14957); assay: NMDAR agonist assay, [3H]MK-801 binding, NMDAR2C; format: biochemical; conditions: 50 μM glutamate
# T1 construct: expressed in transfected cells; host or cells: HEK cells (membrane extract)
# Experimental: (§1) Assays were conducted as described by Moskal et al., “GLYX-13: a monoclonal antibody-derived peptide that acts as an N-methyl-D-aspartate receptor modulator,” Neuropharmacology, 49, 1077-87, 2005. These studies were designed to determine if the test compounds act to facilitate NMDAR activation in NMDAR2A, NMDAR2B, NMDAR2C or NMDAR2D expressing HEK cell membranes as measured by increases in [^3H]MK-801 binding.
# (§2) In the assay, 300 μg of NMDAR expressing HEK cell membrane extract protein was preincubated for 15 minutes at 25° C. in the presence of saturating concentrations of glutamate (50 μM) and varying concentrations of test compound (1×10^−15 M-1×10^−7 M), or 1 mM glycine. Following the addition of 0.3 μCi of [^3H]MK-801 (22.5 Ci/mmol), reactions were again incubated for 15 minutes at 25° C. (nonequilibrium conditions). Bound and free [^3H]MK-801 were separated via rapid filtration using a Brandel apparatus.
# In analyzing the data, the DPM (disintegrations per minute) of [^3H]MK-801 remaining on the filter were measured for each concentration of test compound or for 1 mM glycine. The DPM values for each concentration of a ligand (N=2) were averaged. The baseline value was determined from the best fit curve of the DPM values modeled using the GraphPad program and the log(agonist) vs. response(three parameters) algorithm was then subtracted from all points in the dataset. The % maximal [^3H]MK-801 binding was then calculated relative to that of 1 mM glycine: all baseline subtracted DPM values were divided by the average value for 1 mM glycine. The EC50 and % maximal activity were then obtained from the best fit curve of the % maximal [^3H]MK-801 binding data modelled using the GraphPad program and the log(agonist) vs. response(three parameters) algorithm. […]
# [2] = biological target: T2, NMDAR2A expressing HEK cell membranes (Homo sapiens, UniProt Q12879); assay: NMDAR agonist assay, [3H]MK-801 binding, NMDAR2A; format: biochemical; set-up: key to NMDAR2A B: log EC50: 0=−; ≥1×10^−9 M (e.g., −8)=+; <1×10^−9 M (e.g., −10)=++; conditions: 50 μM glutamate
# T2 construct: expressed in transfected cells; host or cells: HEK cells (membrane extract)
# T2 sequence (Q12879 23-1464, other chains not shown): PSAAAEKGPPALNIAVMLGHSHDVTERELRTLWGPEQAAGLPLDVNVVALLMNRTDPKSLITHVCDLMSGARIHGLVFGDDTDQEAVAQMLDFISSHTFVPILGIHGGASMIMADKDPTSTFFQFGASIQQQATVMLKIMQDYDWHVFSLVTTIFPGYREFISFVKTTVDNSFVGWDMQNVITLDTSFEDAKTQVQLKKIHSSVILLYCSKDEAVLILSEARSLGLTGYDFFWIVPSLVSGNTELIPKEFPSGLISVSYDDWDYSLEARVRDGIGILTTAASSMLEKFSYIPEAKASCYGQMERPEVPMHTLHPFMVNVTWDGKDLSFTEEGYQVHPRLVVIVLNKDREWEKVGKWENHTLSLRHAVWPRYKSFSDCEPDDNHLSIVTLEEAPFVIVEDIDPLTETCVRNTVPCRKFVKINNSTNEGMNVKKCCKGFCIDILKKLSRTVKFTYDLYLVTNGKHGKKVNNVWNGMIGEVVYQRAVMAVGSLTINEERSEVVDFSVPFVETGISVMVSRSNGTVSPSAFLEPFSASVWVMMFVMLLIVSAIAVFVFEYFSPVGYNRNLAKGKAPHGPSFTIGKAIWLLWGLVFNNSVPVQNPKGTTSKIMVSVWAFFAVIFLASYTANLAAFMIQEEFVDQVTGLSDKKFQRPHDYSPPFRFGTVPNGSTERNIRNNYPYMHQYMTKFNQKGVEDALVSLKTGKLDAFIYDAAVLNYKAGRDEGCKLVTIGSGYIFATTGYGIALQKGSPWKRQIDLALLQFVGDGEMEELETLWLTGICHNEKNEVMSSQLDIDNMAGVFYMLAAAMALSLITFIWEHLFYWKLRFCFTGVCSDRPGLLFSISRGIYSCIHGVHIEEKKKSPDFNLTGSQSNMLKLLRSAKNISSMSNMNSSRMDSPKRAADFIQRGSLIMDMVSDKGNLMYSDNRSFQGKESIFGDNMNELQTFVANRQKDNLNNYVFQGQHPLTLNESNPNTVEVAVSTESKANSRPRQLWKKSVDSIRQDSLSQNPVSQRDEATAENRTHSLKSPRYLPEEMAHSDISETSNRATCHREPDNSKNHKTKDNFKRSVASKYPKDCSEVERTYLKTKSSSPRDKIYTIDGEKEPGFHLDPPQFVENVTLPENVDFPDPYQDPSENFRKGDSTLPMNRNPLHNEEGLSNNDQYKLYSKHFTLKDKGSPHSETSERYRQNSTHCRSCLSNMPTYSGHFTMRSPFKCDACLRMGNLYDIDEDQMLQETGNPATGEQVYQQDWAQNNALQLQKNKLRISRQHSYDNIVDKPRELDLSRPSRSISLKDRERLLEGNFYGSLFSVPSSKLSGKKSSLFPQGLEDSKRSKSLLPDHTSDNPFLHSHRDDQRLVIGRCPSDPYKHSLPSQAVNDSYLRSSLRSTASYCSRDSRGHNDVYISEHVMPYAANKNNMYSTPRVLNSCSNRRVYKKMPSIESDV
# In short: (§3)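 HEK membranes (300 μg protein) expressing each subtype were preincubated 15 min at 25 °C with 50 μM glutamate and compound (1×10^−15–1×10^−7 M) or 1 mM glycine. [3H]MK-801 (0.3 μCi) binding then ran 15 min under nonequilibrium conditions, followed by filtration. EC50 and % maximal binding against 1 mM glycine came from three-parameter fits of baseline-subtracted DPM (N=2).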
# [3] = biological target: T3, NMDAR2A expressing HEK cell membranes (Homo sapiens, UniProt Q05586+Q12879); assay: NMDAR agonist assay, [3H]MK-801 binding, NMDAR2A; format: biochemical; set-up: key to NMDAR2A B: log EC50: 0=−; ≥1×10^−9 M (e.g., −8)=+; <1×10^−9 M (e.g., −10)=++; conditions: 0.25 h, 50 μM glutamate; read-out: NMDAR2A A: % maximal [3H]MK-801 binding relative to 1 mM glycine
# T3 construct: expressed in transfected cells; host or cells: HEK cells (membrane extract)
# T3 sequence (Q12879 23-1464, other chains not shown): as above
# In short: as §3
# [4] = IV pharmacokinetics; set-up: species or system Sprague Dawley rats; conditions: Sprague Dawley, in vivo, rat, 2 mg/kg, normal saline
# Experimental: Sprague Dawley rats were dosed intravenously using a normal saline formulation containing 2 mg/kg of the compounds identified in the below table. The table below summarizes the results of the IV pharmacokinetics.
# [5] = biological target: T4, NMDAR2D expressing HEK cell membranes (Homo sapiens, UniProt O15399+Q05586); assay: NMDAR agonist assay, [3H]MK-801 binding, NMDAR2D; format: biochemical; conditions: 50 μM glutamate; read-out: NMDAR2D B: log EC50 (converted)
# T4 construct: expressed in transfected cells; host or cells: HEK cells (membrane extract)
# T4 sequence (O15399 28-1336, other chains not shown): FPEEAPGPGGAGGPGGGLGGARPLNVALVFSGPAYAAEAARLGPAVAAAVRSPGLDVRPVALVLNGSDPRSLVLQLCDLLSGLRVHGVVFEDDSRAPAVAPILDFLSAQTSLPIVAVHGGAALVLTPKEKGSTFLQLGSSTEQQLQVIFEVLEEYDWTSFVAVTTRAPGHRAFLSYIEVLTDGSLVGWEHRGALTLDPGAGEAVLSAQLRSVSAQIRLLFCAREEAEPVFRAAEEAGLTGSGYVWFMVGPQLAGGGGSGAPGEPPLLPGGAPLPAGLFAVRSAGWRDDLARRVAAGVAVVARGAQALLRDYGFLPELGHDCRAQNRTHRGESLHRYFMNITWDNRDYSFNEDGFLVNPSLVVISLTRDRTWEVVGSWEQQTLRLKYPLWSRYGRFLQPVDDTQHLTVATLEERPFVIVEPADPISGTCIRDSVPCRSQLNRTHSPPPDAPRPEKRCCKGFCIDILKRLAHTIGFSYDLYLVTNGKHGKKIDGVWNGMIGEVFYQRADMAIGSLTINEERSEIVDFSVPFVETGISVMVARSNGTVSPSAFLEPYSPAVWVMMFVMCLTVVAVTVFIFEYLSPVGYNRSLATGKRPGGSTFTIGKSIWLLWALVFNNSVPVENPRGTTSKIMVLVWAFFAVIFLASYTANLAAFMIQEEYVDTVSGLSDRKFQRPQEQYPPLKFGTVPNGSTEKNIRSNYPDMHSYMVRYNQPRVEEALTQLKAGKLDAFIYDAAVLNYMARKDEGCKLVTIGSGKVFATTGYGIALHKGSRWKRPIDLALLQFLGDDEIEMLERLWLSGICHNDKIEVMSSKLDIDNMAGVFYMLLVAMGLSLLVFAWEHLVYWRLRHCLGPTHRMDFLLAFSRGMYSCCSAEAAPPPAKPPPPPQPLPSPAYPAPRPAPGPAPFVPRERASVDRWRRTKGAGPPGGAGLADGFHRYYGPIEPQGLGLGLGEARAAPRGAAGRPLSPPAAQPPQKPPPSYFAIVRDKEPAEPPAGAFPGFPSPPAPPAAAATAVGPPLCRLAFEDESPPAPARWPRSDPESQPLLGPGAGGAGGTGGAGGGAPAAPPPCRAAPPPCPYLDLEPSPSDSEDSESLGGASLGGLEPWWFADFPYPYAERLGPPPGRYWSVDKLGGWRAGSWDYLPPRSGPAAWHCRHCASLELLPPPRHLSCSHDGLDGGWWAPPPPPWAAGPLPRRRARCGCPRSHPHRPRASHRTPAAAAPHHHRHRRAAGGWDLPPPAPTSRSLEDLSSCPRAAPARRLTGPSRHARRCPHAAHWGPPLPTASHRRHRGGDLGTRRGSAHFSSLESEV
# Experimental: as §1, §2
# (§4) In analyzing the data, the DPM (disintegrations per minute) of [^3H]MK-801 remaining on the filter were measured for each concentration of test compound or for 1 mM glycine. The DPM values for each concentration of a ligand (N=2) were averaged. The baseline value was determined from the best fit curve of the DPM values modeled using the GraphPad program and the log(agonist) vs. response(three parameters) algorithm was then subtracted from all points in the dataset. The % maximal [^3H]MK-801 binding was then calculated relative to that of 1 mM glycine: all baseline subtracted DPM values were divided by the average value for 1 mM glycine. The EC50 and % maximal activity were then obtained from the best fit curve of the % maximal [^3H]MK-801 binding data modelled using the GraphPad program and the log(agonist) vs. response(three parameters) algorithm.
# (§5) The tables below summarize the results for the wild type NMDAR agonists NMDAR2A, NMDAR2B, NMDAR2C, and NMDAR2D, and whether the compound is not an agonist (−), is an agonist (+), or is a strong agonist (++), where column A is based on the % maximal [^3H]MK-801 binding relative to 1 mM glycine (−=0; <100%=+; and >100%=++); and column B is based on log EC50 values (0=−; ≥1×10^−9 M (e.g., −8)=+; and <1×10^−9 M (e.g., −10)=++).
# [6] = biological target: T5, NMDAR2D expressing HEK cell membranes (Homo sapiens, UniProt O15399); assay: NMDAR agonist assay, [3H]MK-801 binding, NMDAR2D; format: biochemical; conditions: 50 μM glutamate
# T5 construct: expressed in transfected cells; host or cells: HEK cells (membrane extract)
# T5 sequence (O15399 28-1336, other chains not shown): as above
# Experimental: as §1, §2, §4, §5
# [7] = tested on: Sprague Dawley rats; assay: Porsolt forced swim test; format: in vivo; conditions: 0.1 mg/kg; for % reduction in float time: relative to vehicle group
# Experimental: A non-clinical in vivo pharmacology study (Porsolt assay) was performed to measure antidepressant-like effects. A negative control (0.5% sodium carboxymethyl cellulose in 0.9% sterile saline vehicle) and a positive control (fluoxetine) are shown for comparison against test compound. The study allowed for the evaluation of the effects of each compound on the Porsolt forced swim test as assessed by the rats' response (reduced floating time) during a 5-minute swimming test.
# Male 2-3 month old Sprague Dawley rats were used (Harlan, Indianapolis, IN). Rats were housed in Lucite cages with aspen wood chip bedding, maintained on a 12:12 light:dark cycle (lights on at 5 AM), and given ad libitum access to Purina lab chow (USA) and tap water throughout the study.
# The Porsolt forced swim test adapted for use in rats was performed as described by Burgdorf et al., (The long-lasting antidepressant effects of rapastinel (GLYX-13) are associated with a metaplasticity process in the medial prefrontal cortex and hippocampus. Neuroscience 308:202-211, 2015). Animals were placed in a 46 cm tall×20 cm in diameter clear glass tube filled to 30 cm with tap water (23±1° C.) for 15 min on the first day (habituation) and 5 min on the subsequent test day. Positive control fluoxetine was dosed 3 times (24 h, 5 h and 1 h) prior to testing. Animals were tested 1 h or 24 h post-dosing with the test compounds or vehicle. Animals received a 15 min habituation session 1 day before the 5 min test. Water was changed after every other animal. Animals were videotaped, and floating time as defined as the minimal amount of effort required to keep the animals head above water was scored offline by a blinded experimenter with high inter-rater reliability (Pearson's r>0.9).
# Each compound tested at dose level shown. Significance vs. vehicle group for each experiment is marked. […] A compound marked “No” was not statistically significant from vehicle. Data was averaged for test compound and vehicle groups (N approximately 8 per group) and the percent reduction in floating for group treated with test compound relative to group treated with vehicle is shown.
smiles,measurement,setting,value
"COc1ccc(CN2C[C@@]3(CCNC(=O)C3)C2=O)cc1 [Compound AA-2, 2-(4-methoxybenzyl)-2,7-diazaspiro[3.5]nonane-1,6-dione]",NMDAR2C A: % maximal [3H]MK-801 binding relative to 1 mM glycine,[1],− (−=0)
same,NMDAR2A B: log EC50,[2],−
same,Emax,[3],0%
same,AUC(0-t),[4],3370 ng·h/mL
same,C0,[4],1990 ng/mL
same,clearance,[4],9.82 mL/min/kg
same,half-life,[4],1.25 h
same,Vd,[4]; read-out: Vss,0.54 L/kg
same,EC50,[5],< 1 nM
same,NMDAR2D A: % maximal [3H]MK-801 binding relative to 1 mM glycine,[6],+ (<100%=+)
same,Significance vs. vehicle,[7]; 1 h post-dose,Yes (found to be statistically significant (p<=0.05) from vehicle at dose level shown)
same,% reduction in float time,[7]; 1 h post-dose,51.5%
same,Significance vs. vehicle,[7]; 24 h post-dose,Yes (found to be statistically significant (p<=0.05) from vehicle at dose level shown)
same,% reduction in float time,[7]; 24 h post-dose,77.80%
